Laboratory results: publication PMC5382548 (Scientific Reports, 2015)

What was measured:
[1] = test system: colon cancer cell lines with mutated KRAS; assay: Anti-proliferative activity, colon cancer cell lines with mutated KRAS; type: cell-based; details: Homo sapiens; range over HCT116 and SW620
Source text: These differences may be due to differing effects on cellular proliferation mechanisms, on cellular uptake and/or intracellular distribution. Assuming a passive diffusion membrane transport for IQcs, compound 2d is expected to accumulate more inside cells due to its predicted higher lipophilicity than compounds with an additional protonated basic group at physiologic pH (3d and 3e). Similarly, the tetra-cationic porphyrin TMPyP4, which is known to have low cell-membrane permeability, gave higher IC50 values.
HCT116 human colon carcinoma cells, SW620 human colorectal adenocarcinoma and HEK293 T human embryonic kidney cells were grown in Dulbecco's modified Eagle's medium (DMEM) supplemented with 10% fetal bovine serum, and 1% antibiotic/antimycotic (Invitrogen, Grand Island, NY, USA) and maintained at 37°C in a humidified atmosphere of 5% CO2. […] Following 72 h of compound exposure, cell viability was evaluated using the CellTiter 96 AQueous Non-Radioactive Cell Proliferation Assay (Promega, Madison, WI, USA), using 3-(4,5-dimethylthiazol-2-yl)-5-(3-carboxymethoxyphenyl)-2-(4-sulfophenyl)-2H-tetrazolium, inner salt (MTS) as previously described. Cell viability data were expressed as mean ± SEM or mean ± SD from at least three independent experiments. IC50 and IC65 values were determined using GaphPad Prism v.5.00 (GraphPad Software). […]

[2] = test system: SW620 metastatic colon cancer cells; assay: Guava ViaCount assay, SW620; type: cell-based, human; details: IC65 concentration, 72 h
Source text: The ability of IQcs to induce cell death in colon cancer cell lines with different genotypes (HCT116 and SW620) and in the non-malignant cell line HEK293T was studied by a Guava Via Count assay and compared with the behaviour of 5-FU and TMPyP4 at equitoxic concentrations (IC50 and IC65). Results in Figure 7 show dose-dependent induction of cell death, mainly by apoptosis, by all tested compounds in the HCT116 colon cancer cell line. […] In SW620 metastatic colon cancer cells, cell death induction was highly dependent on the number and position of side chains in IQc compounds. […]
Figure 7 Evaluation of the effect of IQc on cell viability using the ViaCount assay. […] Results are expressed as the mean percentage (%) of viable (white), mid-apoptotic (grey) and dead (black) cells ± SEM, of at least three different experiments, for (a) IC50, and for (b) IC65 compound concentrations. a, p < 0.05; b, p < 0.01 from DMSO (vehicle control); c, p < 0.05; and d, p < 0.01 from 5-FU. […]
Taqman Real-time PCR reactions were performed using 1.5 µg of total RNA, using High Capacity RNA to cDNA kit, according to the manufacturer`s instruction. […] The comparative threshold cycle method was used to calculate the amplification factor, where the threshold cycle (Ct) is defined as the cycle number at which the fluorescence passes the fixed threshold intensity level. […]

KRAS21R G4 = assay: FRET melting assay, KRAS21R G4; type: binding, human; details: G4 0.2 μM, ligand 1 μM, K-cacodylate buffer pH 7.4, 60 mM K+
Description: (§1) Fluorescence resonance energy transfer (FRET) studies with DNA sequences labelled at the 5′ and 3′ ends, were conducted to evaluate the G4 DNA stabilizing properties of IQcs (at 0.1 to 5 μM ligand concentrations). The G4-forming sequence KRAS21R[11], together with T-loop, a 26-mer hairpin double-stranded DNA (ds-DNA) sequence were used in the first screening assay. Reproducible IQc dose-dependent melting curves (Sup. Inf.; Figure S3) and stabilization temperature (ΔTm) values were obtained (Figure 2 and Table S5).
(§2) Figure 2 FRET stabilization temperatures (ΔTm) of KRAS21R G4 and hairpin ds-DNA (T-loop) at 0.2 μM, in K-cacodylate buffer (pH = 7.4, 60 mM K^+), stabilized by IQc derivatives and TMPyP4 at 1 μM. ^a) SD ≤ 0.2°C. TEXT PRINTED IN THE PICTURE: TMPyP4: ΔTm / °C ^a) (T-Loop): 16.0; ΔTm / °C ^a) (KRAS21R): 25.1 | 3e: ΔTm / °C ^a) (T-Loop): 6.5; ΔTm / °C ^a) (KRAS21R): 22.0 | 3d: ΔTm / °C ^a) (T-Loop): 5.6; ΔTm / °C ^a) (KRAS21R): 19.9 | 2d: ΔTm / °C ^a) (T-Loop): 6.1; ΔTm / °C ^a) (KRAS21R): 15.1 | 2a: ΔTm / °C ^a) (T-Loop): 1.5; ΔTm / °C ^a) (KRAS21R): 4.4 […]
(§3) Oligonucleotide sequences were purchased from Eurofins MWG Synthesis GmbH, Germany or STAB VIDA Genomics Lab, Caparica, Lisbon, Portugal. The labelled oligonucleotides used in the FRET assays had attached the donor fluorophore FAM (6-carboxyfluorescein) and the acceptor fluorophore TAMRA (6-carboxytetramethylrhodamine): KRAS21R: 5′-FAM-[…]-TAMRA-3′; KRAS32R: 5′-FAM-[…]-TAMRA-3′; UTR-1: 5′-FAM-GCGGCGGCGGAGG-TAMRA-3′; UTR-2: 5′-FAM-[…]-TAMRA-3; T-Loop:5′-FAM-[…]-TAMRA-3′; F21T: 5′-FAM-[…]-TAMRA-3′. Non-labelled oligonucleotides were used in FRET competition assays and in the spectroscopic studies: ds26: - d(5′-CAATCGGATCGAATT CGATCCGATTG-3′); KRAS21R: 5′-[…]-3′; HT21: 5′-[…]-3′. Each oligonucleotide was initially diluted to a storage solution at 100 μM in nuclease-free water (not DEPC-treated), purchased from Ambion Applied Biosystems UK.
(§4) The ability of indolo[3,2-c]quinolines to stabilize DNA sequences was investigated using a Fluorescence Resonance Energy Transfer (FRET) assay as reported elsewhere.
(§5) Figure S3 (cont.)| Concentration-dependent (0.1, 0.5, 1, 2, 3, 4 and 5 µM) FRET melting profiles of G4 structures and T-loop DNA with indolo[3,2-c]quinoline derivatives 1a, 2a-g and 3d-j in K-cacodylate buffer (pH 7.4, 60 mM K+). […]
(§6) Table S5 | FRET stabilization temperatures (ΔTm) of G4s sequences and ds-DNA (0.2 µM) stabilized by […]

[3] = test system: T-loop, a 26-mer hairpin double-stranded DNA; assay: FRET melting assay, T-loop hairpin ds-DNA; type: binding; details: ds-DNA 0.2 μM, ligand 1 μM, K-cacodylate buffer pH 7.4, 60 mM K+
Description: as §1, §2, §3, §4, §5, §6

HCT116 (colon) = assay: MTS short-term cytotoxicity assay, HCT116; type: cell-based, human; details: Homo sapiens, HCT-116; MTS assay, 72 h; read-out: IC50 HCT116
Description: (§7) Short-term anti-proliferative assays were carried out by two different assays using a panel of human cancer and non-malignant human cell lines. […] The transformed human embryonic kidney cell line HEK293T (wt KRAS) was sensitive to all tested drugs, including TMPyP4, a cationic porphyrin established as a G4 ligand, as well as the anticancer drug 5-fluorouracil (5-FU).
(§8) HCT116 human colon carcinoma cells, SW620 human colorectal adenocarcinoma and HEK293 T human embryonic kidney cells were grown in Dulbecco's modified Eagle's medium (DMEM) supplemented with 10% fetal bovine serum, and 1% antibiotic/antimycotic (Invitrogen, Grand Island, NY, USA) and maintained at 37°C in a humidified atmosphere of 5% CO2. Cells were seeded in 96 well plates at 5.000 cells/well. Twenty-four hours after cell plating, media was removed and replaced with fresh media containing test compounds and 5-FU (Sigma), a common cytotoxic agent used in colon cancer treatmen, or vehicle control (DMSO). Following 72 h of compound exposure, cell viability was evaluated using the CellTiter 96 AQueous Non-Radioactive Cell Proliferation Assay (Promega, Madison, WI, USA), using 3-(4,5-dimethylthiazol-2-yl)-5-(3-carboxymethoxyphenyl)-2-(4-sulfophenyl)-2H-tetrazolium, inner salt (MTS) as previously described. Cell viability data were expressed as mean ± SEM or mean ± SD from at least three independent experiments. IC50 and IC65 values were determined using GaphPad Prism v.5.00 (GraphPad Software). (Performed at Cell Function and Therapeutic Targeting Group, iMed.ULisboa)

SW620 (metastatic colon) = assay: MTS short-term cytotoxicity assay, SW620; type: cell-based; details: Homo sapiens, SW-620; MTS assay, 72 h; read-out: IC50 SW620
Description: as §7, §8

[4] = test system: HEK293T (embryonic kidney); assay: MTS short-term cytotoxicity assay, HEK293T; type: cell-based; details: Homo sapiens, HEK-293T; MTS assay, 72 h; read-out: IC50 HEK293T
Description: as §7, §8

O=c1[nH]cc(F)c(=O)[nH]1 [5-FU, 5-fluorouracil, reference compound]
IC50 [1]: 2.38 to 5.39 µM | Cell death induced, SW620 [2]: > 20%

CCN(CC)CCCC(C)Nc1ccc2[nH]c3c(c[n+](C)c4ccc(NC(C)CCCN(CC)CC)cc34)c2c1.[Cl-] (centres unmarked) [3h]
FRET stabilization temperature ΔTm (KRAS21R) (KRAS21R G4): 11.8 °C | FRET stabilization temperature ΔTm (T-loop) [3]: 1.7 °C

Brc1ccc2c3cn(Cc4ccccc4)c4ccc(Br)cc4c-3nc2c1 [3c]
FRET stabilization temperature ΔTm (T-loop) [3]: 0.3 °C

C[n+]1cc2c3ccccc3[nH]c2c2cc(NCCCN3CCOCC3)ccc21 [2f]
FRET stabilization temperature ΔTm (KRAS21R) (KRAS21R G4): 10.1 °C | FRET stabilization temperature ΔTm (T-loop) [3]: 3.4 °C

CCN(CC)CCCC(C)Nc1ccc2c(c1)c1[nH]c3ccccc3c1c[n+]2C.[Cl-] (centres unmarked) [2g]
FRET stabilization temperature ΔTm (KRAS21R) (KRAS21R G4): 15.4 °C | FRET stabilization temperature ΔTm (T-loop) [3]: 1.9 °C

CCN(CC)CCNc1ccc2c(c1)c1[nH]c3ccccc3c1c[n+]2C [2b]
FRET stabilization temperature ΔTm (KRAS21R) (KRAS21R G4): 12.6 °C | FRET stabilization temperature ΔTm (T-loop) [3]: 7.2 °C

C[n+]1cc2c3ccc(NCCCN4CCOCC4)cc3[nH]c2c2cc(NCCCN3CCOCC3)ccc21 [3g]
FRET stabilization temperature ΔTm (KRAS21R) (KRAS21R G4): 13.2 °C | FRET stabilization temperature ΔTm (T-loop) [3]: 2.9 °C

C[n+]1cc2c3cc(NCCCN4CCOCC4)ccc3[nH]c2c2cc(NCCCN3CCOCC3)ccc21 [3f]
FRET stabilization temperature ΔTm (KRAS21R) (KRAS21R G4): 14.1 °C | FRET stabilization temperature ΔTm (T-loop) [3]: 4.9 °C

Brc1ccc2ncc3c4ccccc4[nH]c3c2c1 [compound 1]
FRET stabilization temperature ΔTm (KRAS21R) (KRAS21R G4): reduced or negligible ability to stabilize the KRAS21R G4 | FRET stabilization temperature ΔTm (KRAS21R) (KRAS21R G4; listed as 1a): 0.7 °C | FRET stabilization temperature ΔTm (T-loop) [3]: 0.4 °C | IC50 (HCT116 (colon)): 9.91 µM | IC50 (SW620 (metastatic colon)): 10.7 µM | IC50 [4]: 8.03 µM

CCN(CC)CCCNc1ccc2c(c1)[nH]c1c2c[n+](Cc2ccccc2)c2ccc(NCCCN(CC)CC)cc12.[Cl-] [3j]
FRET stabilization temperature ΔTm (KRAS21R) (KRAS21R G4): 16.8 °C | FRET stabilization temperature ΔTm (T-loop) [3]: 5.2 °C

CC(C)NCCCNc1ccc2c(c1)c1[nH]c3ccccc3c1c[n+]2C [2c]
FRET stabilization temperature ΔTm (KRAS21R) (KRAS21R G4): 14.5 °C | FRET stabilization temperature ΔTm (T-loop) [3]: 9.1 °C

C[n+]1cc2c3ccccc3[nH]c2c2cc(NCCCN3CCCCC3)ccc21 [2e]
FRET stabilization temperature ΔTm (KRAS21R) (KRAS21R G4): 13.4 °C | FRET stabilization temperature ΔTm (T-loop) [3]: 5.2 °C

CCN(CC)CCCC(C)Nc1ccc2c(c1)[nH]c1c2c[n+](C)c2ccc(NC(C)CCCN(CC)CC)cc12.[Cl-] (centres unmarked) [3i]
FRET stabilization temperature ΔTm (KRAS21R) (KRAS21R G4): 13.9 °C | FRET stabilization temperature ΔTm (T-loop) [3]: 2.4 °C
